These compounds were tested on peroxide produced in rat liver homogenates (assay: Antioxidant activity: FeSO4-generated peroxides in rat liver homogenate, thiobarbituric acid reaction). Conditions: rat liver homogenate incubated with FeSO4, thiobarbituric acid reaction; read-out: IC50, antioxidant activity (peroxide production).
Assay type: biochemical
Protocol: Rat liver homogenates were prepared according to Fraga, C. G. et al. Free Radicals Biol. Med., 4, 155, 1988 and Kornburst D. J. et al. Lipids 15, 315, 1980.
Peroxides were generated by incubation of the homogenate with the FeSO4 as described by Quitanilha A. T. et al. Ann. N.Y., Acad. Sci. 393, 32, 1982.
Compounds to be tested for their antioxidant activity were dissolved in DMSO and added to the incubation mixture. The amount of peroxide produced was determined by the thiobarbituric acid reaction using malonaldehyde as standard.

| Compound | IC50 |
| --- | --- |
| CCOP(=O)(OCC)C(=Cc1cc(C(C)(C)C)c(O)c2ccccc12)P(=O)(OCC)OCC [Example 1] | 1500 nM |
| CC(C)OP(=O)(OC(C)C)C(=Cc1cc(C(C)(C)C)c(O)c2ccccc12)P(=O)(OC(C)C)OC(C)C [Example 2] | 700 nM |
| CCOP(=O)(OCC)C(=Cc1cc(C(C)(C)C)c(O)c2c1CCCC2)P(=O)(OCC)OCC [Example 6, Tetraethyl 2-(3-tert-butyl-4-hydroxy-5,6,7,8-tetrahydronaphthyl)-ethenylidene-1,1-diphosphonate] | 7000 nM |
| CC(C)OP(=O)(OC(C)C)C(=Cc1cc(C(C)(C)C)c(O)c2c1CCCC2)P(=O)(OC(C)C)OC(C)C [Example 8, Tetraispropyl 2-[3-tert-butyl-4-hydroxy-5,6,7,8-tetrahydronaphthyl]-ethenylidene-1,1-diphosphonate] | 2500 nM |
